Experimental data taken from patent publication US20140120166A1, “COMPOSITION OF ENTACOPONE” (INNOPHARMAX, INC., priority 2011, published 2014).

Test: Dissolution test (FDA dissolution method for entacapone, USP paddle apparatus, HPLC analysis)
Assay type: physicochemical
Details: USP standard paddle stirring apparatus, 50 rpm, 900 mL pH 5.5 phosphate buffer solution, 120 minutes
Description: The dissolution test was conducted according to the drug dissolution method for entacapone obtained by searching the Dissolution Methods Database provided on the FDA website (http://www.accessdata.fda.gov/scripts/cder/dissolution/dsp_Search Results_Dissolutions.cfm). The dissolution test was carried out using a USP standard paddle stirring apparatus with a rotation speed of 50 rpm. The solvent used was 900 mL pH 5.5 phosphate buffer solution and the period of test was 120 minutes.

In the case of `CCN(CC)C(=O)/C(C#N)=C/c1cc(O)c(O)c([N+](=O)[O-])c1` [entacapone, (E)-2-cyano-3-(3,4-dihydroxy-5-nitro-phenyl)-N,N-diethyl-2-propenamide], the “Dissolution Rate (%)” value is reported as “about 81.15%”.
